Assay results from the supplement of paper PMC10307832.

Columns and labels:
Experiment in all cases: relative viability (nuclei count vs DMSO), 5 days (fraction); higher = more cells survive
Avagacestat + Navitoclax = compound: NC(=O)[C@@H](CCC(F)(F)F)N(Cc1ccc(-c2ncon2)cc1F)S(=O)(=O)c1ccc(Cl)cc1 [Avagacestat] + CC1(C)CCC(c2ccc(Cl)cc2)=C(CN2CCN(c3ccc(C(=O)NS(=O)(=O)c4ccc(N[C@H](CCN5CCOCC5)CSc5ccccc5)c(S(=O)(=O)C(F)(F)F)c4)cc3)CC2)C1 [Navitoclax] (partner 0.5 µM)
Summary of the method: (§1)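 Cells from lung cancer lines were seeded into 1536-well plates and, one day later, dosed by pin tool. Treatments were either a single drug or a fixed dose of an anchor drug with five library-drug doses (not always all listed) in √10 steps. After 5 days, nuclei were stained in a one-step fixation (final 0.05% Triton X-100, 1% formaldehyde, 1 ug/ml Hoechst) and counted on 4× images, and relative viability is the treated-to-vehicle nuclei ratio, as the median of duplicate plates.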

Avagacestat + Linsitinib = compound: NC(=O)[C@@H](CCC(F)(F)F)N(Cc1ccc(-c2ncon2)cc1F)S(=O)(=O)c1ccc(Cl)cc1 [Avagacestat] + C[C@]1(O)C[C@@H](c2nc(-c3ccc4ccc(-c5ccccc5)nc4c3)c3c(N)nccn32)C1 [Linsitinib] (partner 1 µM)
Summary of the method: as §1

Avagacestat + Foretinib = compound: NC(=O)[C@@H](CCC(F)(F)F)N(Cc1ccc(-c2ncon2)cc1F)S(=O)(=O)c1ccc(Cl)cc1 [Avagacestat] + COc1cc2c(Oc3ccc(NC(=O)C4(C(=O)Nc5ccc(F)cc5)CC4)cc3F)ccnc2cc1OCCCN1CCOCC1 [Foretinib] (partner 0.25 µM)
Summary of the method: as §1

Avagacestat + Luminespib = compound: NC(=O)[C@@H](CCC(F)(F)F)N(Cc1ccc(-c2ncon2)cc1F)S(=O)(=O)c1ccc(Cl)cc1 [Avagacestat] + CCNC(=O)c1noc(-c2cc(C(C)C)c(O)cc2O)c1-c1ccc(CN2CCOCC2)cc1 [Luminespib] (partner 0.01 µM)
Summary of the method: as §1

| Cell Line | relative viability (Avagacestat + Navitoclax; first compound 0.08 µM) | relative viability (Avagacestat + Navitoclax; first compound 0.253 µM) | relative viability (Avagacestat + Navitoclax; first compound 0.8 µM) | relative viability (Avagacestat + Navitoclax; first compound 2.53 µM) | relative viability (Avagacestat + Navitoclax; first compound 8 µM) | relative viability (Avagacestat + Linsitinib; first compound 0.08 µM) | relative viability (Avagacestat + Linsitinib; first compound 0.253 µM) | relative viability (Avagacestat + Linsitinib; first compound 0.8 µM) | relative viability (Avagacestat + Linsitinib; first compound 2.53 µM) | relative viability (Avagacestat + Linsitinib; first compound 8 µM) | relative viability (Avagacestat + Foretinib; first compound 0.08 µM) | relative viability (Avagacestat + Foretinib; first compound 0.253 µM) | relative viability (Avagacestat + Foretinib; first compound 0.8 µM) | relative viability (Avagacestat + Foretinib; first compound 2.53 µM) | relative viability (Avagacestat + Foretinib; first compound 8 µM) | relative viability (Avagacestat + Luminespib; first compound 0.08 µM) | relative viability (Avagacestat + Luminespib; first compound 0.253 µM) | relative viability (Avagacestat + Luminespib; first compound 0.8 µM) | relative viability (Avagacestat + Luminespib; first compound 2.53 µM) | relative viability (Avagacestat + Luminespib; first compound 8 µM) |
| --- | --- | --- | --- | --- | --- | --- | --- | --- | --- | --- | --- | --- | --- | --- | --- | --- | --- | --- | --- | --- |
| HCC-78 | 0.884 | 0.818 | 0.791 | 0.665 | 0.68 | 0.568 | 0.54 | 0.706 | 0.396 | 0.406 | 0.588 | 0.523 | 0.542 | 0.492 | 0.54 | – | – | – | – | – |
| HCC-366 | 1.23 | 1.48 | 1 | 1.09 | 1.01 | 1.06 | 0.782 | 0.835 | 0.471 | 0.373 | 1.01 | 1.05 | 0.944 | 1.01 | 1.04 | – | – | – | – | – |
| HCC-827 | 1.12 | 1.02 | 1.11 | 1.07 | 1.02 | 1.03 | 1.02 | 0.931 | 0.995 | 1.08 | 1.08 | 1.12 | 1.15 | 1 | 1.03 | 0.711 | 0.927 | 0.586 | 0.324 | 0.578 |
| HOP-62 | 1.26 | 1.12 | 0.962 | 0.978 | 0.895 | 1.06 | 0.852 | 0.992 | 0.919 | 0.94 | 1.29 | 1.2 | 1.17 | 0.948 | 0.996 | 0.988 | 1.09 | 1.01 | 0.889 | 0.83 |
| IA-LM | 1.25 | 1.3 | 1.34 | 1.21 | 1.18 | 1.24 | 0.859 | 1.11 | 1.01 | 0.984 | 1.76 | 1.68 | 1.71 | 1.37 | 1.4 | – | – | – | – | – |
| LC-2-ad | 0.652 | 0.528 | 0.534 | 0.423 | 0.428 | 0.819 | 0.896 | 0.87 | 0.778 | 0.807 | 1 | 1.03 | 0.914 | 0.854 | 0.868 | 1.18 | 1.05 | 1.18 | 0.948 | 1.14 |
| LCLC-97TM1 | 0.467 | 0.409 | 0.39 | 0.128 | 0.341 | 0.161 | 0.212 | 0.155 | 0.151 | 0.163 | 0.977 | 0.916 | 0.894 | 0.92 | 0.944 | 0.849 | 1.03 | 0.837 | 0.705 | 0.718 |
| LCLC-103H | – | – | – | – | – | 1.08 | 1.01 | 1.24 | 1.01 | 0.877 | 0.803 | 0.849 | 0.757 | 0.56 | 0.784 | 1.1 | 1.27 | 0.979 | 0.808 | 0.851 |
| LK-2 | 1.16 | 0.969 | 0.704 | 0.365 | 0.797 | 0.966 | 0.49 | 0.386 | – | 0.505 | 1.72 | 1.7 | 1.07 | 1.07 | 0.93 | 0.185 | 0.176 | 0.198 | 0.154 | 0.169 |
